In brackets after ≈: the same amount, converted by molar mass.
Key:
Plasmodium falciparum [1] = assay: Antiplasmodial activity against chloroquine resistant Plasmodium falciparum RKL9 infected in human erythrocyte assessed as inhibition of parasite growth incubated for 24 hrs by three fold serial dilution assay; format: functional
Plasmodium falciparum [2] = assay: Antiplasmodial activity against chloroquine sensitive Plasmodium falciparum GC03 infected in human erythrocyte assessed as inhibition of parasite growth incubated for 48 hrs by SYBR Green dye based fluorescence assay; format: functional, organism-based
Plasmodium falciparum [3] = assay: Antiplasmodial activity against chloroquine resistant Plasmodium falciparum K14 assessed as inhibition of parasite growth incubated for 48 hrs by [3H]-hypoxanthine incorporation based microbeta scintillation counting method; format: functional, organism-based
Plasmodium falciparum [4] = assay: Antiplasmodial activity against chloroquine sensitive Plasmodium falciparum 3D7 assessed as inhibition of parasite growth incubated for 48 hrs by Malstat reagent based spectrophotometric; format: functional, organism-based; conditions: 3D7, 48 h
Plasmodium falciparum [5] = assay: Antimalarial activity against chloroquine resistant Plasmodium falciparum assessed as inhibition of parasite growth; format: functional, organism-based
Plasmodium falciparum [6] = assay: Antimalarial activity against Plasmodium falciparum 3D7 assessed as reduction of parasite growth at 25 uM incubated for 96 hrs by SYBR green I dye based fluorescence assay relative to control; format: functional; design: scale not given: the % may be the effect or the level left
Plasmodium falciparum [7] = assay: Antimalarial activity against Plasmodium falciparum 3D7 assessed as reduction of parasite growth incubated for 96 hrs by SYBR green I dye based fluorescence assay; format: functional, organism-based; conditions: 3D7, 96 h
Plasmodium falciparum [8] = assay: Antiplasmodial activity against chloroquine resistant Plasmodium falciparum RKL-2 assessed as inhibition of parasite growth incubated for 36 to 40 hrs by Giemsa staining based microscopic analysis; format: functional, organism-based
Plasmodium falciparum [9] = assay: Antiplasmodial activity against erythrocytic stage of Plasmodium falciparum 3D7 assessed as reduction of parasite growth incubated for 100 hrs by SYBR Green dye based fluorescence assay; format: functional, organism-based; conditions: 3D7, 100 h
Plasmodium falciparum [10] = assay: Antiplasmodial activity against erythrocytic stage of Plasmodium falciparum K1 assessed as reduction of parasite growth incubated for 48 hrs by [3H]-hypoxanthine incorporation based beta-plate liquid scintillation counting method; format: functional, organism-based
Plasmodium falciparum [11] = assay: Antiplasmodial activity against erythrocytic stage of Plasmodium falciparum NF54 assessed as reduction of parasite growth incubated for 48 hrs by [3H]-hypoxanthine incorporation based beta-plate liquid scintillation counting method; format: functional, organism-based
[12] = Selectivity index, ratio of CC50 for cytotoxicity against human HepG2 cells by MTT assay to EC50 for antiplasmodial activity against erythrocytic stage of Plasmodium falciparum 3D7 by SYBR Green dye based fluorescence assay; format: toxicity, cell-based; conditions: read-out: Ratio CC50/EC50
[13] = Cytotoxicity against human HepG2 cells assessed as reduction in cell viability incubated for 72 hrs by MTT assay; format: toxicity, cell-based
Plasmodium falciparum [14] = assay: Antimalarial activity against Plasmodium falciparum 3D7 assessed as inhibition of parasite growth by measuring minimum inhibitory concentration by microassay; format: functional
Plasmodium falciparum [15] = assay: Antiplasmodial activity against chloroquine resistant Plasmodium falciparum K14 assessed as inhibition of parasite growth incubated for 42 hrs by [3H]-hypoxanthine incorporation based microbeta scintillation counting method; format: functional, organism-based
Plasmodium berghei = assay: Antimalarial activity against Plasmodium berghei ANKA infected in Swiss albino mouse assessed as reduction in parasitemia at 50 micromol/kg,po administrated for 4 days by Giemsa staining based microscopic analysis; format: functional; design: scale not given: the % may be the effect or the level left; conditions: dose 50 µmol/kg, time 4 day
Plasmodium falciparum [16] = assay: Antiplasmodial activity against Plasmodium falciparum 3D7 assessed as inhibition of parasite growth incubated for 72 hrs by LDH assay based spectrofluorometric analysis; format: functional, organism-based; conditions: 3D7, 72 h
[17] = Selectivity index, ratio of CC50 for cytotoxicity against human HepG2 cells by MTT assay to EC50 for antiplasmodial activity against erythrocytic stage of Plasmodium falciparum NF54 by [3H]-hypoxanthine incorporation based liquid scintillation counting method; format: toxicity, cell-based; conditions: read-out: Ratio CC50/EC50
[18] = Selectivity index, ratio of CC50 for cytotoxicity against human HepG2 cells by MTT assay to EC50 for antiplasmodial activity against erythrocytic stage of Plasmodium falciparum K1 by [3H]-hypoxanthine incorporation based liquid scintillation counting method; format: toxicity, cell-based; conditions: read-out: Ratio CC50/EC50

Question: Which “inhibition (INH)” value (Plasmodium falciparum [1]) does the source give for COc1ccc(/C=N/NC(=O)c2ccncc2)cc1O here?
Answer: 91%

Question: For N=C(N)c1ccc(-c2cn(-c3ccc(C(=N)N)cc3)nn2)cc1, which IC50 (Plasmodium falciparum [2]) is on record?
Answer: 0.087 µM

Question: Which “inhibition (INH)” value (Plasmodium falciparum [1]) does the source give for O=C(N/N=C/C=C/c1ccccc1)c1ccncc1 here?
Answer: 80%

Question: With COc1ccc(N2C(=O)[C@@H](Oc3ccc(Cl)cc3Cl)[C@H]2c2ccc(NC(=O)N3CCOCC3)cc2)cc1 as the compound, how does the IC50 (Plasmodium falciparum [3]) read?
Answer: 21 µM

Question: For COc1ccc(-c2[nH]c3c(NC(C)=O)cc(/C=C/c4ccc(F)cc4)cc3c2C(=O)C(F)(F)F)cc1, which IC50 (Plasmodium falciparum [4]) is on record?
Answer: 3.39 µM

Question: With Nc1cc(Cl)c(S(N)(=O)=O)cc1-c1nnc(S)n1-c1ccccc1Cl as the compound, how does the IC50 (Plasmodium falciparum [5]) read?
Answer: 0.025 µg/mL (≈ 0.0601 µM)

Question: With COC(=O)[C@H](Cc1ccc(O)c(-c2ccc(C(C)=O)cc2)c1)NC(=O)C(=O)c1c[nH]c2ccccc12 as the compound, how does the Activity (Plasmodium falciparum [6]) read?
Answer: 60%

Question: Which Activity (Plasmodium falciparum [6]) does the source give for COC(=O)[C@H](Cc1ccc(O)c(-c2ccc(F)cc2)c1)NC(=O)C(=O)c1c[nH]c2ccccc12 here?
Answer: 60%

Question: What about the EC50 (Plasmodium falciparum [7]) of the same compound?
Answer: 1.3 µM

Question: For CCN(Cc1cc(C2(C)OOC(c3ccncc3)OO2)ccc1O)c1ccccc1 (stereo not drawn), which IC50 (Plasmodium falciparum [8]) is on record?
Answer: 5.3 µg/mL (≈ 13 µM)

Question: Which EC50 (Plasmodium falciparum [9]) does the source give for CC1(C)C2CC=C(CC(=O)Nc3cccc4cccnc34)[C@@H]1C2 here?
Answer: 2.19 µM

Question: And the EC50 (Plasmodium falciparum [10])?
Answer: > 50 µM

Question: What about the EC50 (Plasmodium falciparum [11]) of the same compound?
Answer: > 50 µM

Question: What about the selectivity ratio [12] of the same compound?
Answer: > 62.3

Question: What about the CC50 at 72 h [13] of the same compound?
Answer: > 100 µM

Question: Which MIC (Plasmodium falciparum [14]) does the source give for COc1ccc2nc(Cl)c(/C=C3/C=C(c4ccc(C)cc4C)OC3=O)cc2c1 here?
Answer: 10 µg/mL (≈ 25.5 µM)

Question: Which IC50 (Plasmodium falciparum [4]) does the source give for CC(=O)Nc1cc(/C=C/c2ccc(F)cc2)cc2cc(-c3ccc(F)cc3)[nH]c12 here?
Answer: 2.14 µM

Question: Which Activity (Plasmodium falciparum [6]) does the source give for COC(=O)[C@H](Cc1ccc(O)c(-c2ccsc2)c1)NC(=O)C(=O)c1c[nH]c2ccccc12 here?
Answer: 60%

Question: With C=C[C@H]1CN2CC[C@H]1C[C@H]2[C@H](O)c1ccnc2ccc(OC)cc12 [QUININE] as the compound, how does the IC50 (Plasmodium falciparum [5]) read?
Answer: 0.026 µg/mL (≈ 0.0801 µM)

Question: With CC(=O)Nc1cc(-c2ccc(F)cc2)cc2c(C(=O)C(F)(F)F)c(-c3ccc(F)cc3)[nH]c12 as the compound, how does the IC50 (Plasmodium falciparum [4]) read?
Answer: 2.52 µM

Question: For CCN(Cc1cc(C2(C)OOC(c3ccccc3)OO2)ccc1O)c1ccccc1 (stereo not drawn), which IC50 (Plasmodium falciparum [8]) is on record?
Answer: 5.3 µg/mL (≈ 13 µM)

Question: For COC(=O)[C@H](Cc1ccc(O)c(-c2ccc3ccccc3c2)c1)NC(=O)C(=O)c1c[nH]c2ccccc12, which Activity (Plasmodium falciparum [6]) is on record?
Answer: 60%

Question: Which IC50 (Plasmodium falciparum [15]) does the source give for CCN(CC)c1ccc(/N=C/c2cccc(CN3CCOCC3)c2O)cc1 here?
Answer: 2.28 µM

Question: For Cc1ccc(-n2cc(C(=O)O)c(-c3ccccc3)n2)cc1, which Activity (Plasmodium berghei) is on record?
Answer: 95%

Question: For Oc1c(/C=N/c2ccc(Oc3ccc(/N=C/c4cccc(CN5CCOCC5)c4O)cc3)cc2)cccc1CN1CCOCC1, which IC50 (Plasmodium falciparum [15]) is on record?
Answer: 2.28 µM

Question: With COC(=O)[C@H](Cc1ccc(O)c(-c2ccccc2)c1)NC(=O)C(=O)c1c[nH]c2ccccc12 as the compound, how does the Activity (Plasmodium falciparum [6]) read?
Answer: 60%

Question: Which Activity (Plasmodium falciparum [6]) does the source give for COC(=O)[C@H](Cc1ccc(O)c(-c2ccc(Cl)cc2)c1)NC(=O)C(=O)c1c[nH]c2ccccc12 here?
Answer: 60%

Question: For C/C1=C\[C@H](C)CCC(=O)/C(C)=C/[C@H](C)C[C@@H](C)CC[C@@H]([C@@H](C)C(=O)O)OC(=O)[C@@H](C)C1, which IC50 (Plasmodium falciparum [16]) is on record?
Answer: 9.81 µM

Question: Which results are given for CC1(C)C2CC=C(CC(=O)Nc3ccnc4ccccc34)[C@@H]1C2?
Answer: EC50 (Plasmodium falciparum [9]): 26.4 µM; EC50 (Plasmodium falciparum [10]): 13.9 µM; EC50 (Plasmodium falciparum [11]): 23.4 µM; selectivity ratio [17]: 0.2; selectivity ratio [12]: 0.2; CC50 at 72 h [13]: 3.98 µM; selectivity ratio [18]: 0.3

Question: With COC(=O)[C@H](Cc1ccc(O)c(-c2ccc(C(C)(C)C)cc2)c1)NC(=O)C(=O)c1c[nH]c2ccccc12 as the compound, how does the Activity (Plasmodium falciparum [6]) read?
Answer: 60%

Question: Which Activity (Plasmodium berghei) does the source give for Cc1ccc(-n2cc(C=O)c(-c3ccccc3)n2)cc1 here?
Answer: 85%

Question: For O=Cc1cn(-c2ccc(Cl)cc2)nc1-c1ccccc1, which Activity (Plasmodium berghei) is on record?
Answer: 83%

Source: ChEMBL document CHEMBL5352391, “New structural classes of antimalarials” (Eur J Med Chem, 2022)
